Results from US20210246502A1, “RAPID IDENTIFICATION OF STRAINS FROM SEQUENCE DATA” (priority 2018, published 2021).

Legend:
N. gonorrhoeae [1] = assay type: cell-based, Neisseria gonorrhoeae; conditions: out of all 1102 gonococcal isolates; ancestral reconstruction only for cefixime
From the text: (§1) For all antibiotics, RASE associates individual isolates with a resistance category, susceptible or non-susceptible. First, MIC values are mined using regular expressions from the available textual antibiograms, i.e., strings describing an interval of possible MIC values. Second, the acquired intervals are compared to the antibiotic-specific breakpoints (FIG. 6). If a given breakpoint is above or below the interval, susceptibility or non-susceptibility is reported, respectively. However, no category can be assigned at this step if the breakpoint lies within the extracted interval, an antibiogram is entirely missing, or an antibiogram is present, but parsing failed. Third, missing categories are inferred using ancestral state reconstruction on the associated phylogenetic tree while maximizing parsimony (i.e., minimizing the number of nodes switching its resistance category; FIG. 7).
(§2) The pneumococcal RASE database was constructed with the standard EUCAST breakpoints^16 ([g/ml]): benzylpenicillin (PEN): 0.06, ceftriaxone (CRO): 0.25, trimethoprim-sulfamethoxazole (SXT): 1.00, erythromycin (ERY): 0.25, and tetracycline (TET): 1.00. The gonococcal RASE database was constructed with the CDC GISP breakpoints ([g/ml]): azithromycin (AZM): 2.0, cefixime (CFM): 0.25, ciprofloxacin (CIP): 1.0, and ceftriaxone (CRO): 0.125. While the Inventors have used the above values in the present work, others may be readily defined and the database rapidly updated.
(§3) The Inventors assigned each pneumococcal and gonococcal isolate to an antibiotic-specific resistance category using the EUCAST breakpoints and CDC GISP breakpoints, respectively. Since MIC data were not always available, the Inventors estimated the likely resistance phenotype of unannotated isolates using ancestral state reconstruction.

S. pneumoniae [2] = test: Resistance categories of pneumococcal RASE database isolates (MIC vs EUCAST breakpoints, ancestral state reconstruction); assay type: cell-based, Streptococcus pneumoniae; conditions: for resistance phenotype of best match database isolate: best match in the Massachusetts RASE database for SP03 and SP06; for number of isolates susceptible: out of all 616 pneumococcal isolates, includes categories inferred by ancestral state reconstruction
From the text: as §1, with “(see below).” for “(FIG. 6).”, “category).” for “category; FIG. 7).”
The RASE database is constructed with the standard EUCAST breakpoints ([g/ml]): Benzylpenicillin (PEN): 0.06, Ceftriaxone (CRO): 0.25, […]: 1.00, Erythromycin (ERY): 0.25, and Tetracycline (TET): 1.00. The breakpoints are set conservatively, i.e., non-susceptibility is preferred over susceptibility for intermediate values. While the Inventors have used the above values in the present work, others may be readily defined and the database rapidly updated.
as §1, §2, §3

N. gonorrhoeae [3] = test: MIC of gonococcal isolates against CDC GISP breakpoint; assay type: cell-based, Neisseria gonorrhoeae; set-up: unit not given beside the values
From the text: as §2, with “updated. This is especially useful in the case where breakpoints may vary depending on the site of infection (as is the case with pneumococcal meningitis and otitis media, where lower MICs are considered to be resistant).” for “updated.”

S. pneumoniae [4] = test: Antibiograms of additional pneumococcal isolates not in the RASE database, EUCAST breakpoints; assay type: cell-based, Streptococcus pneumoniae; conditions: 23F isolates SP03 and SP06, related to Tennessee 23F-4 clone
From the text: The Inventors examined four additional pneumococcal isolates (FIG. 14b) for which the serotype and limited antibiogram and lineage data were known. The Inventors compared three characteristics of the sample to assess the Inventors' performance: the serotype, the MLST sequence type (ST) and the antibiograms (benzylpenicillin, ceftriaxone, trimethoprim-sulfamethoxazole, erythromycin, and tetracycline resistance according to EUCAST breakpoints).

S. pneumoniae [5] = test: Resistance of streptococcus in metagenomic sputum samples by agar diffusion, EUCAST methodology and breakpoints; assay type: cell-based, Streptococcus pneumoniae; conditions: metagenomic sputum sample SP10 (Swedish 15A clone, ST63)
Experimental: Resistance of streptococcus in the metagenomic samples (SP07-SP12) was determined by agar diffusion using the EUCAST methodology and breakpoints. First, the inoculated agar plates were incubated at 37° C. overnight and then examined for growth with the potential for re-incubation up to 48 hours. Then, the samples were screened to oxacillin: if the zone diameter r was >20 mm, the isolate was considered sensitive to benzylpenicillin, otherwise a full MIC measurement to benzylpenicillin was done.

Compound	number of isolates associated with resistance (N. gonorrhoeae [1])	number of isolates susceptible (S. pneumoniae [2])	other results
CC[C@H]1OC(=O)[C@H](C)[C@@H](O[C@H]2C[C@@](C)(OC)[C@@H](O)[C@H](C)O2)[C@H](C)[C@@H](O[C@@H]2O[C@H](C)C[C@H](N(C)C)[C@H]2O)[C@](C)(O)C[C@@H](C)CN(C)[C@H](C)[C@@H](O)[C@]1(C)O [azithromycin]	232	–	–
CC1(C)S[C@@H]2[C@H](NC(=O)Cc3ccccc3)C(=O)N2[C@H]1C(=O)O [benzylpenicillin]	–	341	resistance phenotype of best match database isolate (S. pneumoniae [2]): resistant
C=CC1=C(C(=O)O)N2C(=O)[C@@H](NC(=O)/C(=N\OCC(=O)O)c3csc(N)n3)[C@H]2SC1 [cefixime]	266	–	–
CO/N=C(\C(=O)N[C@@H]1C(=O)N2C(C(=O)O)=C(CSc3nc(=O)c(=O)[nH]n3C)CS[C@H]12)c1csc(N)n1 [ceftriaxone]	69	485	MIC (N. gonorrhoeae [3]; best match of GC05 in the RASE database): 0.062; MIC (N. gonorrhoeae [3]; multi-drug resistant isolate GC05, equal to CDC GISP breakpoint): 0.125
O=C(O)c1cn(C2CC2)c2cc(N3CCNCC3)c(F)cc2c1=O [ciprofloxacin]	594	–	–
CC[C@H]1OC(=O)[C@H](C)[C@@H](O[C@H]2C[C@@](C)(OC)[C@@H](O)[C@H](C)O2)[C@H](C)[C@@H](O[C@@H]2O[C@H](C)C[C@H](N(C)C)[C@H]2O)[C@](C)(O)C[C@@H](C)C(=O)[C@H](C)[C@@H](O)[C@]1(C)O [erythromycin]	–	484	resistance phenotype of samples (S. pneumoniae [4]): resistant; resistance phenotype of sample (S. pneumoniae [5]): resistant; resistance phenotype of best match database isolate (S. pneumoniae [2]): susceptible
Cc1onc(-c2ccccc2)c1C(=O)N[C@@H]1C(=O)N2[C@@H]1SC(C)(C)[C@@H]2C(=O)O [oxacillin]	–	–	resistance phenotype of sample (S. pneumoniae [5]): resistant
CN(C)[C@@H]1C(O)=C(C(N)=O)C(=O)[C@@]2(O)C(O)=C3C(=O)c4c(O)cccc4[C@@](C)(O)[C@H]3C[C@@H]12 [tetracycline]	–	551	–
COc1cc(Cc2cnc(N)nc2N)cc(OC)c1OC [trimethoprim, Trimethoprim]	–	480	–
trimethoprim-sulfamethoxazole	–	480	–
